Structures can show the parent of a compound that is named as a salt.
Target: T1, acetylcholinesterase (Rattus norvegicus, UniProt P37136)
T1 construct: Using a rat brain homogenate as a source of acetylcholinesterase; from tissue; host or cells: rat brain homogenate
Assay: Inhibitory action on acetylcholinesterase in vitro (rat brain homogenate, Ellman method)
Type: biochemical
Details: acetylthiocholine substrate, DTNB, 412 nm, compounds dissolved in physiological saline, read-out: 50% inhibitory concentration (IC50) on acetylcholinesterase
Procedure: Inhibitory action on acetylcholinesterase in vitro
Using a rat brain homogenate as a source of acetylcholinesterase, its esterase activity was measured in accordance with the method of Ellman et al^1). Acetylthiocholine as the substrate, sample and DTNB (5,5'-dithiobis(2-nitrobenzoic acid)) were added to the homogenate and incubated, whereby the produced thiocholine was reacted with DTNB and the resulting yellow product was measured for the change of absorbance at 412 nm to determine the acetylcholinesterase activity.
Each of the following compounds was used after dissolved in physiological saline.

T1 sequence (P37136 32-614): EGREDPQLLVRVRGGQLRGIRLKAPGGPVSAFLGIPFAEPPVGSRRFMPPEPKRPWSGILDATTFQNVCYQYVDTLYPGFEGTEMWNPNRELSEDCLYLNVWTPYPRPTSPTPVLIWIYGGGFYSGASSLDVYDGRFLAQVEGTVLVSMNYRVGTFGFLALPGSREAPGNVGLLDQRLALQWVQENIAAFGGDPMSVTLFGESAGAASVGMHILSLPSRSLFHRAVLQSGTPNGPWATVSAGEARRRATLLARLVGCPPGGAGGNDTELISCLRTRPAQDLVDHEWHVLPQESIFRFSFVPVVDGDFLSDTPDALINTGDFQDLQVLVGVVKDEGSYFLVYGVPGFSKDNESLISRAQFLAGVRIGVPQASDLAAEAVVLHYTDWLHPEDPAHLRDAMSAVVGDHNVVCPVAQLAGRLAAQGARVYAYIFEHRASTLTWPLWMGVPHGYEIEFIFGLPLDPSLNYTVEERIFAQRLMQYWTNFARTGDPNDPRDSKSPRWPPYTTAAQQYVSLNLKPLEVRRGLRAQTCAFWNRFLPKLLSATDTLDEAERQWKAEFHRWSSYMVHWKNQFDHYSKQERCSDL

How did the IC50 turn out when `COc1cc2c(cc1OC)C(=O)C(F)(CC1CCN(Cc3ccccc3)CC1)C2` (stereo not shown) [Compound 1, 1-benzyl-4-[5,6-dimethoxy-2-fluoro-1-indanon)-2-yl]methylpiperidine hydrochloride] was run?
The IC50 was 1.3 nM.
